Results: article PMC4198181, “Gold(I) Complexes of 9-Deazahypoxanthine as Selective Antitumor and Anti-Inflammatory Agents” (PLoS ONE, 2014)

System: human cancer cell lines (MCF7, HOS, A549, G361, HeLa, A2780, A2780R, 22Rv1)
Test: MTT in vitro cytotoxicity, summary over the panel of human cancer cell lines
Type: cell-based
Conditions: on the MCF7 and HOS cell lines
Description: In vitro cytotoxic activity was determined by the MTT assay in human breast adenocarcinoma (MCF7; ECACC no. 86012803), human osteosarcoma (HOS; ECACC no. 87070202), lung carcinoma (A549; ECACC no. 86012804), malignant melanoma (G361; ECACC no. 88030401), cervix epitheloid carcinoma (HeLa; ECACC no. 93021013), ovarian carcinoma (A2780; ECACC no. 93112519), cisplatin-resistant ovarian carcinoma (A2780R; ECACC no. 93112517) and prostate carcinoma (22Rv1; ECACC no 105092802) cancer cell lines, purchased from European Collection of Cell Cultures (ECACC). The cells were cultured according to the ECACC instructions and they were maintained at 37°C and 5% CO2 in a humidified incubator. The primary culture of human hepatocytes (HEP220, batch number HEP220819) was obtained from Biopredic International (France). The culture medium was Williams and HAM's F-12 (1∶1) supplemented with penicillin, streptomycin, ascorbic acid, linoleic acid, holo-transferin, ethanolamine, glucagon, insulin, dexamethasone, pyruvate, glucose, glutamine, amphotericin. The medium was enriched for plating with 2% foetal calf serum (v/v). The medium was exchanged for a serum-free medium the day after and the culture was stabilized for additional 24 h. Thereafter, the cells were ready for treatments. The cultures were maintained at 37°C and 5% CO2 in a humidified incubator. The cells were treated with complexes 1–5 (at the concentration levels of 0.01, 0.1, 1.0, 5.0, 25.0, and 50.0 µM), starting compounds e.g. HL1–5, AuCl, and cisplatin (applied up to 50 µM) for 24 h, using multi-well culture plates of 96 wells. […]
The cytotoxicity data were expressed as the percentage of viability, where 100% represented the treatments with vehicle (0.1% DMF or 0.1% DMSO). […] The IC50 values were calculated from viability curves. […] The significance of the differences between the results was assessed by the ANOVA analysis with p<0.05 considered to be significant (QC Expert 3.2, Statistical software, TriloByte Ltd., Pardubice, Czech Republic).

CC(C)Oc1ncnc2cc[n]([Au])c12.c1ccc(P(c2ccccc2)c2ccccc2)cc1 [complex 2, [Au(L2)(PPh3)]]
times more efficient than cisplatin: at least 20 times
